Tests used:
Format in all cases: in vitro ADME
CYP1A2 [1] = biological target: T1, CYP1A2 (Homo sapiens, UniProt P05177); experiment: Cocktail probe assay in pooled human liver microsomes: phenacetin O-deethylation (IC50); details: 50 μM phenacetin
T1 construct: pooled human liver microsomes (0.25 mg/mL); tissue BD Gentest Co. H161; host or cells: pooled human liver microsomes
T1 sequence (P05177 1-516): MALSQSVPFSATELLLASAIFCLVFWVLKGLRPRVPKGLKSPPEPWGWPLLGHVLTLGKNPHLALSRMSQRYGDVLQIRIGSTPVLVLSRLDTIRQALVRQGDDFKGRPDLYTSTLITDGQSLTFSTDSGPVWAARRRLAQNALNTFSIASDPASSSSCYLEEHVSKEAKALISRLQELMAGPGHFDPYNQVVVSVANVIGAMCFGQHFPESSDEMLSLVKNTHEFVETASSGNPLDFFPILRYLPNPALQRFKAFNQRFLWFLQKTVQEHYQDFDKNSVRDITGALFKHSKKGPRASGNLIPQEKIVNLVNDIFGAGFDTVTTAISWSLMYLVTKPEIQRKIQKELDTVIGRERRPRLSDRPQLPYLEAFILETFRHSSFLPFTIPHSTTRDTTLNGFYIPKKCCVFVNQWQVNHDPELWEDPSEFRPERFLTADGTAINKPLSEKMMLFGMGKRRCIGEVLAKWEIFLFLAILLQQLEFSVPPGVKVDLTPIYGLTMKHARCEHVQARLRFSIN
Method: (§1) The inhibitory potencies (IC50 values) of eupatilin and jaceosidin were determined with CYP assays in the presence and absence of eupatilin and jaceosidin (final concentrations of 0.1−100 μM with acetonitrile concentration of less than 0.5% v/v) using pooled human liver microsomes. Phenacetin O-deethylase, coumarin 7-hydroxylase, amodiaquine N-deethylase, diclofenac hydroxylase, [S]-mephenytoin 4'-hydroxylase, bufuralol 1'-hydroxylase, and midazolam 1'-hydroxylase activities were determined as probe activities for CYP1A2, CYP2A6, CYP2C8, CYP2C9, CYP2C19, CYP2D6, and CYP3A, respectively, using cocktail incubation and tandem mass spectrometry. The incubation mixtures were prepared in a total volume of 200 μL as follows: pooled human liver microsomes (0.25 mg/mL), 1.3 mM NADPH, 3.3 mM MgCl2, 50 mM potassium phosphate buffer (pH 7.4), and a cocktail of probe substrates and various concentrations of eupatilin or jaceosidin (0.1−100 μM). […] After a 3 min preincubation at 37 °C, the reactions were initiated by adding NADPH and incubated for 20 min at 37 °C with shaking in a water bath. After incubation, the reaction was stopped by placing the tubes on ice and adding 100 μL of ice-cold acetonitrile containing internal standards (0.5 μg/mL [^13C,^15N]-acetaminophen for acetaminophen and N-desethylamodiaquine, 0.5 μg/mL [^2H5]-7-hydroxycoumarin for 7-hydroxycoumarin, 2.0 μg/mL [^13C6]-4-hydoxydiclofenac for 4-hydoxydiclofenac, 0.5 μg/mL [^2H3]-4'-hydoxymephenytoin for 4-hydoxymephenytoin and 1'-hydroxymidazolam, and 0.5 μg/mL [^2H7]-1'-hydroxybufuralol for 1'-hydroxybufuralol). The incubation mixtures were then centrifuged at 10,000× g for 5 min. All incubations were performedin triplicate.
(§2) To evaluate the effect of preincubation on inhibitory potency, eupatilin and jaceosidin (0.1−100 μM) were preincubated for 30 min with NADPH, buffer, and microsomes before the addition of the CYP probe substrates. The reaction was started by addition of the cocktail of probe substrates.
(§3) All seven metabolites produced from the cocktail of CYP isoform-specific substrates were simultaneously determined by LC/MS/MS. The system consisted of a tandem quadrupole mass spectrometer (TSQ Quantum Access, ThermoFisher Scientific, CA, USA) coupled with a Nanospace SI-2 LC system. The separation was performed on an Atlantis dC18 column (5 μm, 2.1 mm i.d. × 100 mm, Waters, Waltham, MA, USA) using the gradient elution of a mixture of 5% methanol in 0.1% formic acid (mobile phase A) and 95% methanol in 0.1% formic acid (mobile phase B) at a flow rate of 0.25 mL/min: 10% mobile phase B for 1 min, 10% to 95% mobile phase B for 1 min, 95% mobile phase B for 5 min. […] Quantification was performed by selected reaction monitoring (SRM) of the [M+H]^+ ion and the related product ion for each metabolite. […]

CYP2A6 = biological target: T2, CYP2A6 (Homo sapiens, UniProt P11509); experiment: Cocktail probe assay in pooled human liver microsomes: coumarin 7-hydroxylation (IC50); details: for IC50, coumarin 7-hydroxylation (CYP2A6): pooled human liver microsomes, 2.5 μM coumarin
T2 construct: pooled human liver microsomes (0.25 mg/mL); tissue BD Gentest Co. H161; host or cells: pooled human liver microsomes
T2 sequence (P11509 1-494): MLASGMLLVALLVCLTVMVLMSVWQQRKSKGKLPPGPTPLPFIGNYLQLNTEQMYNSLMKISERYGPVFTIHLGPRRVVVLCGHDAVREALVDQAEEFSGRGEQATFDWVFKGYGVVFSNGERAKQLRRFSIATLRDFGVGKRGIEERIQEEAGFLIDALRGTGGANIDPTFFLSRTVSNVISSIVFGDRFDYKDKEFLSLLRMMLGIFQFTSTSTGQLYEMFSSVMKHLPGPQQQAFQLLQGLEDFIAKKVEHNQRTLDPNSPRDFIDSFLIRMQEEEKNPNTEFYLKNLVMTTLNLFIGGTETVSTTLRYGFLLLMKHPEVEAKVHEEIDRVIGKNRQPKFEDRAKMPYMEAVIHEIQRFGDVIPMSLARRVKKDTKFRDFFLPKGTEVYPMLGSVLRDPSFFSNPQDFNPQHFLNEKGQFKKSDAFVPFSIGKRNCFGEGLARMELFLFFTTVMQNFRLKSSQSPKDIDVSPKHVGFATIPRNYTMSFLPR
Method: as §1, §2
(§4) All seven metabolites produced from the cocktail of CYP isoform-specific substrates were simultaneously determined by LC/MS/MS. The system consisted of a tandem quadrupole mass spectrometer (TSQ Quantum Access, ThermoFisher Scientific, CA, USA) coupled with a Nanospace SI-2 LC system. The separation was performed on an Atlantis dC18 column (5 μm, 2.1 mm i.d. × 100 mm, Waters, Waltham, MA, USA) using the gradient elution of a mixture of 5% methanol in 0.1% formic acid (mobile phase A) and 95% methanol in 0.1% formic acid (mobile phase B) at a flow rate of 0.25 mL/min: 10% mobile phase B for 1 min, 10% to 95% mobile phase B for 1 min, 95% mobile phase B for 5 min. The column and autosampler temperatures were 50 °C and 4 °C, respectively. After 1.5 min, the LC eluant was diverted from waste to the mass spectrometer that was fitted with an electrospray ionization (ESI) source and operated in the positive ion mode. The ESI source settings for the ionization of the metabolites were as follows: electrospray voltage, 5.0 kV; vaporizer temperature, 420 °C; capillary temperature 360 °C; sheath gas pressure, 35 psi; auxiliary gas pressure, 10 psi. Quantification was performed by selected reaction monitoring (SRM) of the [M+H]^+ ion and the related product ion for each metabolite. The analytical data were processed using Xcalibur® software (ThermoFisher Scientific).
(§5) The IC50 values (concentration of inhibitor causing 50% inhibition of the original enzyme activity) were calculated using WinNonlin software, a non-linear regression analysis program (Pharsight, Mountain View, CA, USA). The apparent kinetic parameters for inhibitory potential (Ki values) were estimated from the fitted curves using Enzyme Kinetics Ver. 1.3 program (Systat Software Inc., San Jose, CA, USA).

CYP2C8 [2] = biological target: T3, CYP2C8 (Homo sapiens, UniProt P10632); experiment: Cocktail probe assay in pooled human liver microsomes: amodiaquine N-deethylation (IC50); details: 2.0 μM amodiaquine, no preincubation
T3 construct: pooled human liver microsomes (0.25 mg/mL); tissue BD Gentest Co. H161; host or cells: pooled human liver microsomes
T3 sequence (P10632 1-490): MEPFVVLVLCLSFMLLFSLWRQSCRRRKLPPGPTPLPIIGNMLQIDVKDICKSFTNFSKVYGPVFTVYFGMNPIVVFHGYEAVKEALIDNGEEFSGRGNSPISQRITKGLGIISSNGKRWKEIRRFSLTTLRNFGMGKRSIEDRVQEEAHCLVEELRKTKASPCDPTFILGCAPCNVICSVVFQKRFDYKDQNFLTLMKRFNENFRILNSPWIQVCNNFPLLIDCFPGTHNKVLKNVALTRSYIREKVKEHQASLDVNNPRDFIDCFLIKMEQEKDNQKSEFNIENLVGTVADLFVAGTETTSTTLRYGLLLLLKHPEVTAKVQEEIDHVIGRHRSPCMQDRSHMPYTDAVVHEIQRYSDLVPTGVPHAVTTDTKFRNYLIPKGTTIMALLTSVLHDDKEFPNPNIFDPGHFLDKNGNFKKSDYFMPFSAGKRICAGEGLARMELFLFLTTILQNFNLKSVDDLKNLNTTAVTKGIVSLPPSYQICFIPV
Method: as §1, with “After incubation, the reaction was stopped by placing the tubes on ice and adding 100 μL of ice-cold acetonitrile containing internal standards (0.5 μg/mL [^13C,^15N]-acetaminophen for acetaminophen and N-desethylamodiaquine, 0.5 μg/mL [^2H5]-7-hydroxycoumarin for 7-hydroxycoumarin, 2.0 μg/mL [^13C6]-4-hydoxydiclofenac for 4-hydoxydiclofenac, 0.5 μg/mL [^2H3]-4'-hydoxymephenytoin for 4-hydoxymephenytoin and 1'-hydroxymidazolam, and 0.5 μg/mL [^2H7]-1'-hydroxybufuralol for 1'-hydroxybufuralol). The incubation mixtures were then centrifuged at 10,000× g for 5 min. All incubations were performedin triplicate.” left out
All seven metabolites produced from the cocktail of CYP isoform-specific substrates were simultaneously determined by LC/MS/MS. […] Quantification was performed by selected reaction monitoring (SRM) of the [M+H]^+ ion and the related product ion for each metabolite. […]

CYP2C9 [3] = biological target: T4, CYP2C9 (Homo sapiens, UniProt P11712); experiment: Cocktail probe assay in pooled human liver microsomes: diclofenac 4-hydroxylation (IC50); details: 10 μM diclofenac
T4 construct: pooled human liver microsomes (0.25 mg/mL); tissue BD Gentest Co. H161; host or cells: pooled human liver microsomes
T4 sequence (P11712 whole entry): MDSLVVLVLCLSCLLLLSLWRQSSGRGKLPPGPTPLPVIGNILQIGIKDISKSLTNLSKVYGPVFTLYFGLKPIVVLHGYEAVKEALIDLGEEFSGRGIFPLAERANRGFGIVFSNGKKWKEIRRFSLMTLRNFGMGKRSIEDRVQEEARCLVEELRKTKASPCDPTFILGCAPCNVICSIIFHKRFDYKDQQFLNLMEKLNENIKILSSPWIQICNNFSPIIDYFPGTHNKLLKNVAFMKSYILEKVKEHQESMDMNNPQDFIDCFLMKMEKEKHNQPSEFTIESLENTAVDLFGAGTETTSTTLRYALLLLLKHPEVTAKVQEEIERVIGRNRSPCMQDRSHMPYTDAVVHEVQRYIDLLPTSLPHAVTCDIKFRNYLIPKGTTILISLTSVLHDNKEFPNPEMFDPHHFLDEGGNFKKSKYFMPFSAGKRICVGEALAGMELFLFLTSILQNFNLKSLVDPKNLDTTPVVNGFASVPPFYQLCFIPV
Method: as §1, §2, §3

CYP2C19 [4] = biological target: T5, CYP2C19 (Homo sapiens, UniProt P33261); experiment: Cocktail probe assay in pooled human liver microsomes: [S]-mephenytoin 4'-hydroxylation (IC50); details: 50 μM [S]-mephenytoin
T5 construct: pooled human liver microsomes (0.25 mg/mL); tissue BD Gentest Co. H161; host or cells: pooled human liver microsomes
T5 sequence (P33261 whole entry): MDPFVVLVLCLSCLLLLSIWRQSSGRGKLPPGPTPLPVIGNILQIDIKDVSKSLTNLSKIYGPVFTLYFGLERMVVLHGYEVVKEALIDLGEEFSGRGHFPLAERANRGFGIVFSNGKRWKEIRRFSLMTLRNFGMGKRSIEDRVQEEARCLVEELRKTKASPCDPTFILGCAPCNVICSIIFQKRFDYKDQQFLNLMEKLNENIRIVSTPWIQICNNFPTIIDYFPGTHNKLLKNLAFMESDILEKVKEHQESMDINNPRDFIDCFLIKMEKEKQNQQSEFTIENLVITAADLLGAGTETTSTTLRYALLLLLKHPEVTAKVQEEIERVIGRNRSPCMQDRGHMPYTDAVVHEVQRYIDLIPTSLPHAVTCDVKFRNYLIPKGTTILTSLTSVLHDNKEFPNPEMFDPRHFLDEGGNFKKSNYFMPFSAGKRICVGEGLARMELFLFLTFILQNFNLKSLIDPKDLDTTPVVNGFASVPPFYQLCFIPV
Method: as §1, §2, §3

CYP2D6 [5] = biological target: T6, CYP2D6 (Homo sapiens, UniProt P10635); experiment: Cocktail probe assay in pooled human liver microsomes: bufuralol 1'-hydroxylation (IC50); details: 5.0 μM bufuralol
T6 construct: pooled human liver microsomes (0.25 mg/mL); tissue BD Gentest Co. H161; host or cells: pooled human liver microsomes
T6 sequence (P10635 whole entry): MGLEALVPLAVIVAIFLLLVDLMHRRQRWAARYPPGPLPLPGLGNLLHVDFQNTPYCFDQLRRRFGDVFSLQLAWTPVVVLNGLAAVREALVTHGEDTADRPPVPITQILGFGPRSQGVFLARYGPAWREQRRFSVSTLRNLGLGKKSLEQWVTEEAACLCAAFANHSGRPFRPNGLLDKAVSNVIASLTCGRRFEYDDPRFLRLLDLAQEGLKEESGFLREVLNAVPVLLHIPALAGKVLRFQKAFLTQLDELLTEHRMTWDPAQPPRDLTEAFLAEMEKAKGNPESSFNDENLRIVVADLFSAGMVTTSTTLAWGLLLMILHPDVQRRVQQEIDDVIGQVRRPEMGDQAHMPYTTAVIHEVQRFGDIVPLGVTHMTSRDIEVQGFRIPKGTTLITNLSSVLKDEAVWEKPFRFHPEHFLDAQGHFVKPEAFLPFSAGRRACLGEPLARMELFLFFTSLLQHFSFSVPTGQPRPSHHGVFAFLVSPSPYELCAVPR
Method: as §1, §2, §3

CYP3A = experiment: Cocktail probe assay in pooled human liver microsomes: midazolam 1'-hydroxylation (IC50); details: for IC50, midazolam 1'-hydroxylation (CYP3A): pooled human liver microsomes, 2.5 μM midazolam
Method: as §1, §2, §4, §5

CYP1A2 [6] = biological target: T1, CYP1A2; experiment: Kinetic analysis (Ki, inhibition type) in human liver microsomes: phenacetin O-deethylation; details: pooled human liver microsomes
Method: (§6) The Ki values and inhibition types (competitive, noncompetitive, uncompetitive, or mixed) were determined for eupatilin and jaceosidin using Lineweaver plots, Dixon plots, and secondary reciprocal plots.
(§7) The reactions were initiated by addition of NADPH at 37 °C and stopped after 15 min by placing the incubation tubes on ice and adding 100 μL of ice-cold methanol containing an internal standard. The incubation mixtures were centrifuged at 10,000' g for 5 min, and aliquots (5 μL) of the supernatants were analyzed by liquid chromatography/tandem mass spectrometry (LC/MS/MS).
as §4, §5

CYP2C8 [7] = biological target: T3, CYP2C8; experiment: Kinetic analysis (Ki, inhibition type) in human liver microsomes: amodiaquine N-deethylation; details: pooled human liver microsomes
Method: as §6, §7, §4, §5

CYP2C9 [8] = biological target: T4, CYP2C9; experiment: Kinetic analysis (Ki, inhibition type) in human liver microsomes: diclofenac 4-hydroxylation; details: pooled human liver microsomes
Method: as §6, §7, §4, §5

CYP2C19 [9] = biological target: T5, CYP2C19; experiment: Kinetic analysis (Ki, inhibition type) in human liver microsomes: [S]-mephenytoin 4'-hydroxylation; details: pooled human liver microsomes; for Inhibition type, S-mephenytoin 4'-hydroxylation (CYP2C19): Lineweaver, Dixon and secondary reciprocal plots
Method: as §6, §7, §4, §5

CYP2D6 [10] = biological target: T6, CYP2D6; experiment: Kinetic analysis (Ki, inhibition type) in human liver microsomes: bufuralol 1'-hydroxylation; details: pooled human liver microsomes
Method: as §6, §7, §4, §5

[11] = with 30 min preincubation in presence of NADPH
[12] = Lineweaver, Dixon and secondary reciprocal plots

SMILES: COc1ccc(-c2cc(=O)c3c(O)c(OC)c(O)cc3o2)cc1OC [eupatilin, 2-(3,4-dimethoxyphenyl)-5,7-dihydroxy-6-methoxychromen-4-one]
- IC50 (CYP1A2 [1]; no preincubation): 9.4 ± 1.5 µM
- IC50 (CYP1A2 [1]; [11]): 11.8 ± 1.3 µM
- Inhibition of CYP2A6-catalyzed coumarin 7-hydroxylation at the highest concentration tested (CYP2A6; 100 μM, human liver microsomes): negligible inhibition
- IC50, coumarin 7-hydroxylation (CYP2A6) (CYP2A6; no preincubation): No inhibition
- IC50, coumarin 7-hydroxylation (CYP2A6) (CYP2A6; [11]): No inhibition
- IC50 (CYP2C8 [2]): > 100 µM
- IC50 (CYP2C9 [3]; no preincubation): 4.1 ± 0.49 µM
- IC50 (CYP2C9 [3]; [11]): 4.9 ± 0.91 µM
- IC50 (CYP2C19 [4]; no preincubation): 48.1 ± 12 µM
- IC50 (CYP2C19 [4]; [11]): 57.7 ± 16.3 µM
- IC50 (CYP2D6 [5]; no preincubation): 58.7 ± 7.6 µM
- IC50 (CYP2D6 [5]; [11]): 79.1 ± 7.5 µM
- Inhibition of CYP3A4-catalyzed midazolam 1'-hydroxylation at the highest concentration tested (CYP3A; 100 μM, human liver microsomes): negligible inhibition
- IC50, midazolam 1'-hydroxylation (CYP3A) (CYP3A; no preincubation): No inhibition
- IC50, midazolam 1'-hydroxylation (CYP3A) (CYP3A; [11]): No inhibition
- Ki (CYP1A2 [6]; 10-100 μM phenacetin): 2.3 ± 0.18 µM
- Inhibition type, phenacetin O-deethylation (CYP1A2) (CYP1A2 [6]; [12]): competitive
- Ki (CYP2C8 [7]; 0.5-5 μM amodiaquine): 102 ± 8.9 µM
- Inhibition type, amodiaquine N-deethylation (CYP2C8) (CYP2C8 [7]; [12]): competitive
- Ki (CYP2C9 [8]; 1-50 μM diclofenac): 1.6 ± 0.17 µM
- Inhibition type, diclofenac 4-hydroxylation (CYP2C9) (CYP2C9 [8]; [12]): mixed
- Ki (CYP2C19 [9]; 10-100 μM [S]-mephenytoin): 28.7 ± 3.6 µM
- Inhibition type, S-mephenytoin 4'-hydroxylation (CYP2C19) (CYP2C19 [9]): mixed
- Inhibition type, S-mephenytoin 4'-hydroxylation (CYP2C19) (CYP2C19 [9]; listed as Eupatilin): mixed-type
- Ki (CYP2D6 [10]; 0.5-5 μM bufuralol): 94.6 ± 5.8 µM
- Inhibition type, bufuralol 1'-hydroxylation (CYP2D6) (CYP2D6 [10]; [12]): competitive

Source: article PMC6257796, “Effects of Eupatilin and Jaceosidin on Cytochrome P450 Enzyme Activities in Human Liver Microsomes” (Molecules, 2010)
